Source: paper PMC6934184, “Selective DNA-PKcs inhibition extends the therapeutic index of localized radiotherapy and chemotherapy” (The Journal of Clinical Investigation, 2019)

Biological target: T1, DAPK3 (ZIPK) (Homo sapiens, UniProt O43293)
T1 construct: purchased Thermo Fisher Scientific (Life Technologies) SelectScreen
Assay: SelectScreen Z'LYTE
Type: biochemical
Method in brief: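 NU5455 was profiled across the SelectScreen Broad panel of kinase activity and binding assays. Z'LYTE reactions such as CSF1R ran at apparent Km ATP, while the Adapta CAMK1 assay used ATP listed as 10. Values are given as percent.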

T1 sequence (O43293 whole entry): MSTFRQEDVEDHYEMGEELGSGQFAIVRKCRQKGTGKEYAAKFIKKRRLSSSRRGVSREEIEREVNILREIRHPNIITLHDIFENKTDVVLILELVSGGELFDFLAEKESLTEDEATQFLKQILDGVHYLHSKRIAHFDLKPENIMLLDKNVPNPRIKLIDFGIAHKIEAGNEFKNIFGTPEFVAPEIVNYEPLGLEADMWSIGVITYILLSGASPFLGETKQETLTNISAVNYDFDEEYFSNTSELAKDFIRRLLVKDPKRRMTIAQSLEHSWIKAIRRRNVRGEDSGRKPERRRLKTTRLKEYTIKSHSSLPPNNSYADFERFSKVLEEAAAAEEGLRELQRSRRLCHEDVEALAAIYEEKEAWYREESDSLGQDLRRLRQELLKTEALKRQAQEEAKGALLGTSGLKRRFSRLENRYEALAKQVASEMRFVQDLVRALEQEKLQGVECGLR

CN(C(=O)CN1CCOCC1)c1ccc2sc3c(-c4cccc5c(=O)cc(N6CC7CCC(C6)O7)oc45)cccc3c2c1 [NU5455]
inhibition at 1 µM: -3.4%
